Laboratory results taken from PubChem BioAssay (NCI).
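In this assay, cells in 96-well plates receive the compound at five concentrations for 48 hours. Endpoints are linearly interpolated between the surrounding concentrations. GI50 marks 50% less growth. The concentration for full growth arrest is given as TGI.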

Experiments:
Assay in all cases: growth of human tumour cells (NCI), 48 h
786-0 renal = tested on: 786-0 renal
A498 renal = tested on: A498 renal
A549 NSCLC = tested on: A549 NSCLC
ACHN renal = tested on: ACHN renal
BT-549 breast = tested on: BT-549 breast
CAKI-1 renal = tested on: CAKI-1 renal
CCRF-CEM leukemia = tested on: CCRF-CEM leukemia
COLO 205 colon = tested on: COLO 205 colon
DU-145 prostate = tested on: DU-145 prostate
EKVX NSCLC = tested on: EKVX NSCLC
HCC-2998 colon = tested on: HCC-2998 colon
HCT-116 colon = tested on: HCT-116 colon
HCT-15 colon = tested on: HCT-15 colon
HL-60(TB) leukemia = tested on: HL-60(TB) leukemia
HOP-62 NSCLC = tested on: HOP-62 NSCLC
HOP-92 NSCLC = tested on: HOP-92 NSCLC
HS 578T breast = tested on: HS 578T breast
HT29 colon = tested on: HT29 colon
IGROV1 ovarian = tested on: IGROV1 ovarian
K-562 leukemia = tested on: K-562 leukemia
KM12 colon = tested on: KM12 colon
LOX IMVI melanoma = tested on: LOX IMVI melanoma
M14 melanoma = tested on: M14 melanoma
MALME-3M melanoma = tested on: MALME-3M melanoma
MCF7 breast = tested on: MCF7 breast
MDA-MB-231 breast = tested on: MDA-MB-231 breast
MDA-MB-435 = tested on: MDA-MB-435
MOLT-4 leukemia = tested on: MOLT-4 leukemia
NCI-H226 lung = tested on: NCI-H226 lung
NCI-H23 lung = tested on: NCI-H23 lung
NCI-H460 lung = tested on: NCI-H460 lung
NCI-H522 lung = tested on: NCI-H522 lung
NCI/ADR-RES ovarian = tested on: NCI/ADR-RES ovarian
OVCAR-3 ovarian = tested on: OVCAR-3 ovarian
OVCAR-4 ovarian = tested on: OVCAR-4 ovarian
OVCAR-5 ovarian = tested on: OVCAR-5 ovarian
OVCAR-8 ovarian = tested on: OVCAR-8 ovarian
PC-3 prostate = tested on: PC-3 prostate
RPMI-8226 leukemia = tested on: RPMI-8226 leukemia
RXF 393 renal = tested on: RXF 393 renal
SF-268 CNS = tested on: SF-268 CNS
SF-295 CNS = tested on: SF-295 CNS
SF-539 CNS = tested on: SF-539 CNS
SK-MEL-2 melanoma = tested on: SK-MEL-2 melanoma
SK-MEL-28 melanoma = tested on: SK-MEL-28 melanoma
SK-MEL-5 melanoma = tested on: SK-MEL-5 melanoma
SK-OV-3 ovarian = tested on: SK-OV-3 ovarian
SN12C renal = tested on: SN12C renal
SNB-19 CNS = tested on: SNB-19 CNS
SNB-75 CNS = tested on: SNB-75 CNS
SR leukemia = tested on: SR leukemia
SW-620 colon = tested on: SW-620 colon
T-47D breast = tested on: T-47D breast
TK-10 renal = tested on: TK-10 renal
U251 CNS = tested on: U251 CNS
UACC-257 melanoma = tested on: UACC-257 melanoma
UACC-62 melanoma = tested on: UACC-62 melanoma
UO-31 renal = tested on: UO-31 renal

## O=C(NC(=S)Nc1ccc(Cl)cc1)c1ccccc1
786-0 renal
  GI50: > 87.4 µM
  TGI: > 100 µM
A498 renal
  GI50: 33 µM
  TGI: > 100 µM
A549 NSCLC
  GI50: > 100 µM
  TGI: > 100 µM
ACHN renal
  GI50: > 100 µM
  TGI: > 100 µM
BT-549 breast
  GI50: > 100 µM
  TGI: > 100 µM
CAKI-1 renal
  GI50: > 79.7 µM
  TGI: > 100 µM
CCRF-CEM leukemia
  GI50: > 100 µM
  TGI: > 100 µM
COLO 205 colon
  GI50: > 100 µM
  TGI: > 100 µM
DU-145 prostate
  GI50: > 72.9 µM
  TGI: > 100 µM
EKVX NSCLC
  GI50: > 100 µM
  TGI: > 100 µM
HCC-2998 colon
  GI50: > 100 µM
  TGI: > 100 µM
HCT-116 colon
  GI50: > 100 µM
  TGI: > 100 µM
HCT-15 colon
  GI50: > 100 µM
  TGI: > 100 µM
HL-60(TB) leukemia
  GI50: > 100 µM
  TGI: > 100 µM
HOP-62 NSCLC
  GI50: > 61.7 µM
  TGI: > 100 µM
HOP-92 NSCLC
  GI50: 8.63 µM
  TGI: 68.5 µM
HS 578T breast
  GI50: 38.8 µM
  TGI: > 100 µM
HT29 colon
  GI50: > 100 µM
  TGI: > 100 µM
IGROV1 ovarian
  GI50: > 87.7 µM
  TGI: > 100 µM
K-562 leukemia
  GI50: > 100 µM
  TGI: > 100 µM
KM12 colon
  GI50: > 100 µM
  TGI: > 100 µM
LOX IMVI melanoma
  GI50: > 100 µM
  TGI: > 100 µM
M14 melanoma
  GI50: > 100 µM
  TGI: > 100 µM
MALME-3M melanoma
  GI50: > 100 µM
  TGI: > 100 µM
MCF7 breast
  GI50: 2.85 µM
MDA-MB-231 breast
  GI50: > 51.6 µM
  TGI: > 100 µM
MDA-MB-435
  GI50: > 100 µM
  TGI: > 100 µM
MOLT-4 leukemia
  GI50: > 100 µM
  TGI: > 100 µM
NCI-H226 lung
  GI50: > 100 µM
  TGI: > 100 µM
NCI-H23 lung
  GI50: > 100 µM
  TGI: > 100 µM
NCI-H460 lung
  GI50: > 100 µM
  TGI: > 100 µM
NCI-H522 lung
  GI50: > 100 µM
  TGI: > 100 µM
NCI/ADR-RES ovarian
  GI50: > 100 µM
  TGI: > 100 µM
OVCAR-3 ovarian
  GI50: > 70.6 µM
  TGI: > 100 µM
OVCAR-4 ovarian
  GI50: > 46.5 µM
  TGI: > 100 µM
OVCAR-5 ovarian
  GI50: > 100 µM
  TGI: > 100 µM
OVCAR-8 ovarian
  GI50: > 100 µM
  TGI: > 100 µM
PC-3 prostate
  GI50: > 100 µM
  TGI: > 100 µM
RPMI-8226 leukemia
  GI50: > 100 µM
  TGI: > 100 µM
RXF 393 renal
  GI50: > 56.2 µM
  TGI: > 100 µM
SF-268 CNS
  GI50: 76 µM
  TGI: > 100 µM
SF-295 CNS
  GI50: > 65.1 µM
  TGI: > 100 µM
SF-539 CNS
  GI50: > 90.7 µM
  TGI: > 100 µM
SK-MEL-2 melanoma
  GI50: > 100 µM
  TGI: > 100 µM
SK-MEL-28 melanoma
  GI50: > 100 µM
  TGI: > 100 µM
SK-MEL-5 melanoma
  GI50: > 100 µM
  TGI: > 100 µM
SK-OV-3 ovarian
  GI50: > 100 µM
  TGI: > 100 µM
SN12C renal
  GI50: > 100 µM
  TGI: > 100 µM
SNB-19 CNS
  GI50: > 79.2 µM
  TGI: > 100 µM
SNB-75 CNS
  GI50: > 49.7 µM
  TGI: > 100 µM
SR leukemia
  GI50: > 100 µM
  TGI: > 100 µM
SW-620 colon
  GI50: > 100 µM
  TGI: > 100 µM
T-47D breast
  GI50: > 90.3 µM
  TGI: > 100 µM
TK-10 renal
  GI50: > 100 µM
  TGI: > 100 µM
U251 CNS
  GI50: > 77.2 µM
  TGI: > 100 µM
UACC-257 melanoma
  GI50: > 100 µM
  TGI: > 100 µM
UACC-62 melanoma
  GI50: > 50.4 µM
  TGI: > 100 µM
UO-31 renal
  GI50: 99 µM
  TGI: > 100 µM

## O=C1CCC2(C=C(Br)C(=O)C(Br)=C2)O1
786-0 renal
  GI50: 17 µM
  TGI: 30.8 µM
A498 renal
  GI50: 16.6 µM
  TGI: 30.3 µM
A549 NSCLC
  GI50: 24.5 µM
  TGI: 67.3 µM
ACHN renal
  GI50: 1.78 µM
  TGI: 3.19 µM
BT-549 breast
  GI50: 13.6 µM
  TGI: 26.7 µM
CAKI-1 renal
  GI50: 0.611 µM
  TGI: 1.91 µM
CCRF-CEM leukemia
  GI50: 1.97 µM
  TGI: 6.25 µM
COLO 205 colon
  GI50: 1.52 µM
  TGI: 2.98 µM
DU-145 prostate
  GI50: 5.44 µM
  TGI: 15.5 µM
EKVX NSCLC
  GI50: 5.29 µM
  TGI: 12.6 µM
HCC-2998 colon
  GI50: 18.7 µM
  TGI: 33.5 µM
HCT-116 colon
  GI50: 1.69 µM
  TGI: 3.12 µM
HCT-15 colon
  GI50: 2.77 µM
  TGI: 8.76 µM
HL-60(TB) leukemia
  GI50: 1.4 µM
  TGI: 6.18 µM
HOP-62 NSCLC
  GI50: 20.8 µM
  TGI: 39.8 µM
HOP-92 NSCLC
  GI50: 3.07 µM
  TGI: 8.89 µM
HS 578T breast
  GI50: 20.4 µM
  TGI: 57.3 µM
HT29 colon
  GI50: 2.89 µM
  TGI: 7.82 µM
IGROV1 ovarian
  GI50: 6.59 µM
  TGI: 15.6 µM
K-562 leukemia
  GI50: 2.81 µM
  TGI: 21.7 µM
KM12 colon
  GI50: 17.4 µM
  TGI: 31.3 µM
LOX IMVI melanoma
  GI50: 2.53 µM
  TGI: 7.53 µM
M14 melanoma
  GI50: 11.8 µM
  TGI: 24.7 µM
MALME-3M melanoma
  GI50: 2.07 µM
  TGI: 4.67 µM
MCF7 breast
  GI50: 3.57 µM
  TGI: 15.7 µM
MDA-MB-231 breast
  GI50: 15.4 µM
  TGI: 33.6 µM
MDA-MB-435
  GI50: 4.84 µM
  TGI: 11.3 µM
MOLT-4 leukemia
  GI50: 3.46 µM
  TGI: > 23 µM
NCI-H226 lung
  GI50: 17.6 µM
  TGI: 36.2 µM
NCI-H23 lung
  GI50: 12 µM
  TGI: 30 µM
NCI-H460 lung
  GI50: 19.6 µM
  TGI: 38.6 µM
NCI-H522 lung
  GI50: 0.31 µM
  TGI: 1.05 µM
NCI/ADR-RES ovarian
  GI50: 16.2 µM
  TGI: 37.3 µM
OVCAR-3 ovarian
  GI50: 1.65 µM
  TGI: 3.02 µM
OVCAR-4 ovarian
  GI50: 2.08 µM
  TGI: 4.34 µM
OVCAR-5 ovarian
  GI50: 15 µM
  TGI: 29.7 µM
OVCAR-8 ovarian
  GI50: 3.45 µM
  TGI: 11.5 µM
PC-3 prostate
  GI50: 15.8 µM
  TGI: 31.3 µM
RPMI-8226 leukemia
  GI50: 10.7 µM
  TGI: 46 µM
RXF 393 renal
  GI50: 2.82 µM
  TGI: 6.96 µM
SF-268 CNS
  GI50: 15.1 µM
  TGI: 28.6 µM
SF-295 CNS
  GI50: 15.9 µM
  TGI: 31.7 µM
SF-539 CNS
  GI50: 2.63 µM
  TGI: 7.14 µM
SK-MEL-2 melanoma
  GI50: 15 µM
  TGI: 30.3 µM
SK-MEL-28 melanoma
  GI50: 1.69 µM
  TGI: 3.87 µM
SK-MEL-5 melanoma
  GI50: 16.4 µM
  TGI: 30 µM
SK-OV-3 ovarian
  GI50: 17.4 µM
  TGI: 31.3 µM
SN12C renal
  GI50: 16.3 µM
  TGI: 35.3 µM
SNB-19 CNS
  GI50: 18.5 µM
  TGI: 35.6 µM
SNB-75 CNS
  GI50: 13.2 µM
  TGI: 26 µM
SR leukemia
  GI50: 2.59 µM
  TGI: 9.69 µM
SW-620 colon
  GI50: 1.81 µM
  TGI: 3.54 µM
T-47D breast
  GI50: 2.22 µM
  TGI: 5.04 µM
TK-10 renal
  GI50: 2.01 µM
  TGI: 4.14 µM
U251 CNS
  GI50: 14.7 µM
  TGI: 28.9 µM
UACC-257 melanoma
  GI50: 3.52 µM
  TGI: 9.28 µM
UACC-62 melanoma
  GI50: 14.8 µM
  TGI: 29 µM
UO-31 renal
  GI50: 5.54 µM
  TGI: 11.4 µM
